Experimental data from the CheMixHub ionic liquid set.

Assay: xn = mol fraction of the nth substance listed
Settings: 100 kPa

CCCn1cc[n+](C)c1.N[C@@H](CO)C(=O)[O-] + O
Settings | electrical conductivity [S/m] | viscosity [mPa·s]
298.15 K, x1 = 0.8782 | – | 2215
298.15 K, x1 = 0.9094 | – | 2314
298.15 K, x1 = 0.9257 | – | 2391
303.15 K, x1 = 0.9426 | – | 1547
308.15 K, x1 = 0.8782 | – | 912
313.15 K, x1 = 0.8656 | 0.0804 | –
313.15 K, x1 = 0.8956 | 0.0751 | –
313.15 K, x1 = 0.9115 | 0.0721 | –
318.15 K, x1 = 0.8936 | – | 432
318.15 K, x1 = 0.9094 | – | 438
318.15 K, x1 = 0.9115 | 0.102 | –
318.15 K, x1 = 0.928 | 0.0979 | –
323.15 K, x1 = 0.8809 | 0.15 | –
323.15 K, x1 = 0.8956 | 0.145 | –
323.15 K, x1 = 0.9426 | – | 337
328.15 K, x1 = 0.8809 | 0.199 | –
328.15 K, x1 = 0.9257 | – | 238
333.15 K, x1 = 0.8782 | – | 171
333.15 K, x1 = 0.9115 | 0.248 | –
338.15 K, x1 = 0.9115 | 0.319 | –
338.15 K, x1 = 0.9257 | – | 134.8
338.15 K, x1 = 0.928 | 0.312 | –

CCCCC[N+](CCCCC)(CCCCC)CCCCC.O=[N+]([O-])[O-] + CCCCCCCCCCCCOS(=O)(=O)[O-].[Na+] + O
viscosity [mPa·s]
Settings | x2 = 1.81e-06, x1 = 0.0001802 | x2 = 3.62e-06, x1 = 0.0001802 | x2 = 5.42e-06, x1 = 0.0001802 | x2 = 7.23e-06, x1 = 0.0001802 | x2 = 9.04e-06, x1 = 0.0001802 | x2 = 1.085e-05, x1 = 0.0001802 | x2 = 1.266e-05, x1 = 0.0001802 | x2 = 1.447e-05, x1 = 0.0001802 | x2 = 1.627e-05, x1 = 0.0001802 | x2 = 1.808e-05, x1 = 0.0001802
293.15 K | 1.017 | 1.018 | 1.019 | 1.02 | 1.02 | 1.02 | 1.021 | 1.021 | 1.021 | 1.021
298.15 K | 0.903 | 0.905 | 0.906 | 0.907 | 0.907 | 0.908 | 0.908 | 0.908 | 0.909 | 0.909
303.15 K | 0.8 | 0.801 | 0.801 | 0.801 | 0.801 | 0.802 | 0.802 | 0.803 | 0.803 | 0.804
308.15 K | 0.713 | 0.713 | 0.713 | 0.713 | 0.714 | 0.714 | 0.715 | 0.716 | 0.716 | 0.716
313.15 K | 0.647 | 0.647 | 0.648 | 0.648 | 0.648 | 0.649 | 0.649 | 0.649 | 0.65 | 0.65
318.15 K | 0.601 | 0.601 | 0.601 | 0.601 | 0.602 | 0.602 | 0.602 | 0.602 | 0.603 | 0.603
